# Results: patent publication EP3784230B1, “THE USE OF TERPENIC COUMARINE DERIVATIVE MOLECULES IN THE TREATMENT OF CANCER DISEASE” (T.C. Istanbul Medipol Universitesi, priority 2018, dated 2019)
# Like-named read-outs stand apart in the source and are kept apart here.
# Assays:
# [1] = tested on: UO31 cell line; conditions: Ferguson R.E. et al., Int. J. Cancer 2005, 115, 155-163, read-out: IC 50 value; cited from earlier work
# [2] = tested on: A498; assay: Cytotoxic activity (IC50) on cancer cell line A498; type: cell-based; conditions: Homo sapiens, read-out: Cytotoxic Activity ( IC 50 )
# Description: (§1) The inventors have determined the cytotoxic activity (IC 50 values) of the compounds according to the invention together with various agents present in the prior art on cell lines of different types of cancer.
# [3] = tested on: UO31 cell line; assay: Cytotoxic activity (IC50) on kidney cancer cell line UO31; type: cell-based; conditions: Homo sapiens, UO-31; U031 (kidney cancer cell line); read-out: Cytotoxic Activity ( IC 50 )
# Description: as §1
# The UO31 cell line is known to be the kidney cancer cell line. Taxol, vinblastine and vincristine anti-cancer agents are used against the kidney cancer in the state of the art.
# [4] = tested on: KM12; assay: Cytotoxic activity (IC50) on cancer cell line KM12; type: cell-based; conditions: Homo sapiens, read-out: Cytotoxic Activity ( IC 50 )
# Description: as §1
# [5] = tested on: COLO205; assay: Cytotoxic activity (IC50) on cancer cell line COLO205; type: cell-based; conditions: Homo sapiens, COLO 205, read-out: Cytotoxic Activity ( IC 50 )
# Description: as §1
# [6] = tested on: A673; assay: Cytotoxic activity (IC50) on cancer cell line A673; type: cell-based; conditions: Homo sapiens, read-out: Cytotoxic Activity ( IC 50 )
# Description: as §1
# [7] = tested on: TC32; assay: Cytotoxic activity (IC50) on cancer cell line TC32; type: cell-based; conditions: Homo sapiens, TC-32, read-out: Cytotoxic Activity ( IC 50 )
# Description: as §1
SMILES,IC50 [1],IC50 [2],IC50 [3],IC50 [4],IC50 [5],IC50 [6],IC50 [7]
CC[C@]1(O)C[C@H]2CN(CCc3c([nH]c4ccccc34)[C@@](C(=O)OC)(c3cc4c(cc3OC)N(C=O)[C@H]3[C@@](O)(C(=O)OC)[C@H](OC(C)=O)[C@]5(CC)C=CCN6CC[C@]43[C@@H]65)C2)C1 [vincristine],> 100 µM,,,,,,
C=C1CC[C@@H]2C(C)(C)[C@@H](O)CC[C@@]2(C)[C@@H]1COc1ccc2ccc(=O)oc2c1 [EXAMPLE MOLECULE II],,20 µM,0.38 µM,9.1 µM,> 50 µM,> 50 µM,> 50 µM
C=C1CC[C@@H]2[C@](C)(COC(C)=O)[C@H](O)CC[C@@]2(C)[C@@H]1COc1ccc2ccc(=O)oc2c1 [EXAMPLE MOLECULE IV],,> 50 µM,0.37 µM,> 50 µM,> 50 µM,> 50 µM,> 50 µM
C=C1CC[C@H]2[C@@](C)(CCC(=O)[C@@]2(C)COC(C)=O)[C@@H]1COc1ccc2ccc(=O)oc2c1 [REFERENCE MOLECULE IV],,> 50 µM,> 50 µM,> 50 µM,> 50 µM,> 50 µM,> 50 µM
C/C(=C\COc1ccc2ccc(=O)oc2c1)CC/C=C(\C)CCC(O)C(C)(C)O (stereo not drawn) [REFERENCE MOLECULE II],,> 50 µM,7.6 µM,> 50 µM,> 50 µM,> 50 µM,> 50 µM
C=C1CC[C@@H]2[C@](C)(COC(C)=O)[C@@H](O)CC[C@@]2(C)[C@@H]1COc1ccc2ccc(=O)oc2c1 [EXAMPLE MOLECULE III],,> 50 µM,0.017 µM,> 50 µM,> 50 µM,> 50 µM,> 50 µM
C=C1CC[C@@H]2[C@](C)(C=O)[C@@H](O)CC[C@@]2(C)[C@@H]1COc1ccc2ccc(=O)oc2c1 [EXAMPLE MOLECULE V],,> 50 µM,0.024 µM,> 50 µM,> 50 µM,> 50 µM,> 50 µM
C=C1CC[C@@H]2C(C)(C)[C@H](O)CC[C@@]2(C)[C@@H]1COc1ccc2ccc(=O)oc2c1 [EXAMPLE MOLECULE I],,21 µM,0.75 µM,2.5 µM,19 µM,> 50 µM,45 µM
CC(C)=CCC/C(C)=C/CC/C(C)=C/COc1ccc2ccc(=O)oc2c1 [REFERENCE MOLECULE I],,> 50 µM,1.8 µM,> 50 µM,> 50 µM,> 50 µM,> 50 µM
CC[C@]1(O)C[C@@H]2CN(CCc3c([nH]c4ccccc34)[C@@](C(=O)OC)(c3cc4c(cc3OC)N(C)[C@H]3[C@@](O)(C(=O)OC)[C@H](OC(C)=O)[C@]5(CC)C=CCN6CC[C@]43[C@@H]65)C2)C1 [vinblastine],> 100 µM,,,,,,
C=C1CC[C@@H]2[C@](C)(CO)[C@H](O)CC[C@@]2(C)[C@@H]1COc1ccc2ccc(=O)oc2c1 [REFERENCE MOLECULE V],,> 50 µM,> 50 µM,> 50 µM,> 50 µM,> 50 µM,> 50 µM
CC(=O)O[C@H]1C(=O)[C@@]2(C)[C@H]([C@H](OC(=O)c3ccccc3)[C@]3(O)C[C@H](OC(=O)[C@H](O)[C@@H](NC(=O)c4ccccc4)c4ccccc4)C(C)=C1C3(C)C)[C@]1(OC(C)=O)CO[C@@H]1C[C@@H]2O [taxol],> 50 µM,,,,,,
C=C1CC[C@@H]2C(C)(C)C(=O)CC[C@@]2(C)[C@@H]1COc1ccc2ccc(=O)oc2c1 [REFERENCE MOLECULE III],,> 50 µM,11 µM,> 50 µM,> 50 µM,> 50 µM,> 50 µM
